The nature of the test: Pilot batch fermentation in LB broth with xylose. Set-up: species or system E. coli. As to conditions: pilot fermentations. Here is the method:
Pilot fermentation studies were conducted in a 3L fermentation vessel in conjunction with a BioFlo 3000 system (which is marketed by New Brunswick Scientific Co. of Edison, N.J.) to monitor temperature, dissolved oxygen, air flow rate, agitation rate and pH. The media used for fermentation consisted of LB broth, xylose at various concentrations, and ampicillin. For some runs, glucose was also added to the media (see the mixed sugar fermentation discussed in connection with FIG. 12 below). To ensure sterility, the fermentor, with the media inside, along with the condenser, and a flask of distilled water were autoclaved the day before each fermentation run. An overnight culture of the strain to be used in the fermentation was then grown the night before each run. The fermentor was connected to the BioFlo 3000 system when ready to begin the run. […] The nitrogen and water flows were then opened, whereby the fermentor was ready for the addition of the overnight culture. The following was then added to the fermentor: (1) 300 mL of sterile, filtered LB broth, (2) an amount of xylose determined as a function of the desired initial sugar concentration, (3) an amount of ampicillin such that the initial concentration in the fermentor was always 100 mg/L, and (4) the overnight culture, whereby fermentation began. […]

As for `O=C[C@H](O)[C@@H](O)[C@H](O)CO` [xylose], the “xylose concentration found to inhibit cell growth and ethanol production” value was more than 175 g/L.
